Experimental data as given in patent US9156877B2, “17-hydroxy-17-pentafluorethyl-estra-4,9(10)-dien-11-benzylidene derivatives, methods for the production thereof and use thereof for treating diseases” (Bayer Intellectual Property GmbH, priority 2009, dated 2015).
In brackets after ≈: the same amount, converted by molar mass.

What was measured:
[1] = target: T1, human progesterone receptor A (Homo sapiens, UniProt P06401); test: Progesterone receptor-antagonistic action in stably transfected SK-N-MC cells with MMTV-LUC reporter (PR-A); assay type: cell-based; conditions: antagonistic potency against 0.1 nmol/l promegestone, 24 hours, luciferase
T1 construct: expressed in transfected cells; host or cells: SK-N-MC human neuroblastoma cells, stably transfected with pRChPR-A-neo and pMMTV-LUC
T1 sequence (P06401 1-769 isoform P06401-2): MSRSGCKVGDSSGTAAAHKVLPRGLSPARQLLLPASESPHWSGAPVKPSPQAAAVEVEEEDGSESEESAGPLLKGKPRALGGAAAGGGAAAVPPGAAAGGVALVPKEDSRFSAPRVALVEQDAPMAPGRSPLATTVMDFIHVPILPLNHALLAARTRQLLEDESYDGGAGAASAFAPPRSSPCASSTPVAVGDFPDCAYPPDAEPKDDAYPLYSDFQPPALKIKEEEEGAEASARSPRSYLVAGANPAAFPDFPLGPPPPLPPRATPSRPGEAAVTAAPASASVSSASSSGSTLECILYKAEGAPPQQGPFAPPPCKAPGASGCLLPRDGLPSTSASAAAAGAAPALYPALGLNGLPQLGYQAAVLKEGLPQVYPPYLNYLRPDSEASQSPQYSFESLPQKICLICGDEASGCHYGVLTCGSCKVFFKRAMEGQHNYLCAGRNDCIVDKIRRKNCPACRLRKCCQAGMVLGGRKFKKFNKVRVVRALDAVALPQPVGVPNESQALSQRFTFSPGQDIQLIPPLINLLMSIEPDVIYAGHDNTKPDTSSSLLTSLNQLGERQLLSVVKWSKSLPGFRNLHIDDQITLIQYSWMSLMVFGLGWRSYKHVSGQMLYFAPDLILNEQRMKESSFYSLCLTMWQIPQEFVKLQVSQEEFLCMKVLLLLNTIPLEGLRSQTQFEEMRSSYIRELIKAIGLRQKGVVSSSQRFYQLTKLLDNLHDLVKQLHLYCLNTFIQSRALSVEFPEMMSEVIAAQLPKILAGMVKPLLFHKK
How it was run: (§1)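 SK-N-MC neuroblastoma cells stably expressing human PR-A or PR-B plus MMTV-LUC reporter, treated 24 h with test compound (0.01 nmol/l–[…]). Antagonist mode used co-treatment with 0.1 nmol/l promegestone; luciferase in lysates read as RLU, expressed as % efficacy and IC50/EC50.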

[2] = target: T2, human progesterone receptor B (Homo sapiens, UniProt P06401); test: Progesterone receptor-antagonistic action in stably transfected SK-N-MC cells with MMTV-LUC reporter (PR-B); assay type: cell-based; conditions: antagonistic potency against 0.1 nmol/l promegestone, 24 hours, luciferase
T2 construct: expressed in transfected cells; host or cells: SK-N-MC human neuroblastoma cells, stably transfected with pRChPR-B-neo and pMMTV-LUC
T2 sequence (P06401 1-933): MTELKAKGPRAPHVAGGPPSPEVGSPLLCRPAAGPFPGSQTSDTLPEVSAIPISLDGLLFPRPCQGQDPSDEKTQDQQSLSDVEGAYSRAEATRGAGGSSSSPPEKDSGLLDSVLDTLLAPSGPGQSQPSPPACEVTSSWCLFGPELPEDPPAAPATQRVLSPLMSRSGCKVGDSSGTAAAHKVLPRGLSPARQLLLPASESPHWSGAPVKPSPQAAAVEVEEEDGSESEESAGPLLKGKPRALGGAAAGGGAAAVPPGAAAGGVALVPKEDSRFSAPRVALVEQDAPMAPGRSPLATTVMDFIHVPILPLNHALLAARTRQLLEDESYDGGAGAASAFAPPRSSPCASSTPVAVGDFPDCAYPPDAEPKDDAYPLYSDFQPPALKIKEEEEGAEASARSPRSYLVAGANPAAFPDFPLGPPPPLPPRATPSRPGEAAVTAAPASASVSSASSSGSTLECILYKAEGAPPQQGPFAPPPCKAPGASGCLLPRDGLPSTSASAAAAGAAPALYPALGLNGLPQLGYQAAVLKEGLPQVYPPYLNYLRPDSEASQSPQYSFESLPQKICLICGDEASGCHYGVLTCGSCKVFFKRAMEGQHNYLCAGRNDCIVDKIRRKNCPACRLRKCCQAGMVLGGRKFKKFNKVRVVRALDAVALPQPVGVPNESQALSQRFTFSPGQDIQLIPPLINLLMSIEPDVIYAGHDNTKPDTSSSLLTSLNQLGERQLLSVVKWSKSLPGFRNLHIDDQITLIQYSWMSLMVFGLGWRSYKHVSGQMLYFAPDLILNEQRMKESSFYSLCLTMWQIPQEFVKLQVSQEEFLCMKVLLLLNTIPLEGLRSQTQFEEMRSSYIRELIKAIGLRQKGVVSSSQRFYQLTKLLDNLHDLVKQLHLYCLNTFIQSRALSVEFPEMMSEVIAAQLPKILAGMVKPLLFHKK
How it was run: as §1

[3] = Metabolic stability in human liver microsomes; assay type: in vitro ADME; conditions: for Predicted clearance [l/h/kg] Human: 1 μM, well-stirred model
Experimental: (§2) Determination of Metabolic Stability in Human and Rat Liver Microsomes
Isolated human liver microsomes (HLM) were used to assess the metabolic stability of compounds of general formula I.
(§3) The incubations were conducted with 2.4 ml of HLM solution (protein content 0.5 mg/ml), 30 μl of the test compound (final concentration 1 μM) and 0.6 ml of the cofactor mixture (═NADPH-generating system composed of 3 IU glucose-6-phosphate dehydrogenase, 14.6 mg glucose-6-phosphate, 1.2 mg NADP) at 37° C. in 100 mM phosphate buffer at pH 7.4. Samples were taken at 6 time points (2-60 min) and precipitated with an equal volume of methanol, and the recovery of the test substances used in the supernatant was determined by LC-MS/MS analysis. The half-life of substance degradation determined therefrom was used to calculate what is called the intrinsic clearance of the substance in the liver microsome preparation. […] In addition, under the assumptions that (i) absorption of the test substance is 100%, and (ii) the first pass is completely reflected by liver microsome metabolism, a maximum oral bioavailability (Fmax) was calculated.

[4] = Metabolic stability in rat liver microsomes; assay type: in vitro ADME; conditions: for Predicted clearance [l/h/kg] Rat: well-stirred model
Experimental: as §2, §3

[5] = Solubility in aqueous medium at pH 7.4; assay type: physicochemical; conditions: for solubility: aqueous medium, pH 7.4, aqueous buffer; for solubility (in words): aqueous medium under physiological conditions
Text: In addition, some compounds have an unusually good solubility, for this active ingredient class, in aqueous medium under physiological conditions (Table 2).

SMILES	IC50 [1]	IC50 [2]	Predicted Fmax [%] (maximum oral bioavailability) Human [3]	Predicted clearance [l/h/kg] Human [3]	Predicted Fmax [%] (maximum oral bioavailability) Rat [4]	Predicted clearance [l/h/kg] Rat [4]	solubility [5]	solubility (in words) [5]
C[C@]12C[C@H](c3cccc(/C=C/c4cccnc4)c3)C3=C4CCC(=O)C=C4CC[C@H]3[C@@H]1CC[C@@]2(O)C(F)(F)C(F)(F)F [Example 22, (8S,11R,13S,14S,17S)-17-hydroxy-13-methyl-17-pentafluoroethyl-11-[3-((E)-2-pyridin-3-ylvinyl)phenyl]-1,2,6,7,8,11,12,13,14,15,16,17-dodecahydrocyclopenta[a]phenanthren-3-one]	0.3 nM	1 nM	41%	0.8 L/h/kg	77%	1.0 L/h/kg	6 µg/mL (≈ 10.5 µM)	–
C[C@]12C[C@H](c3cccc(/C=C/c4ccccn4)c3)C3=C4CCC(=O)C=C4CC[C@H]3[C@@H]1CC[C@@]2(O)C(F)(F)C(F)(F)F [Example 21, (8S,11R,13S,14S,17S)-17-hydroxy-13-methyl-17-pentafluoroethyl-11-[3-((E)-2-pyridin-2-ylvinyl)phenyl]-1,2,6,7,8,11,12,13,14,15,16,17-dodecahydrocyclopenta[a]phenanthren-3-one]	0.9 nM	1 nM	48%	0.7 L/h/kg	88%	0.5 L/h/kg	7 µg/mL (≈ 12.3 µM)	–
C[C@]12C[C@H](c3ccc(/C=C/c4ccccn4)cc3)C3=C4CCC(=O)C=C4CC[C@H]3[C@@H]1CC[C@@]2(O)C(F)(F)C(F)(F)F [Example 6, (8S,11R,13S,14S,17S)-17-hydroxy-13-methyl-17-pentafluoroethyl-11-[4-((E)-2-pyridin-2-ylvinyl)phenyl]-1,2,6,7,8,11,12,13,14,15,16,17-dodecahydrocyclopenta[a]phenanthren-3-one]	0.16 nM	0.12 nM	84%	0.21 L/h/kg	83%	0.7 L/h/kg	9 µg/mL (≈ 15.8 µM)	–
C[C@]12C[C@H](c3ccc(/C=C/CC(C(=O)O)C(=O)O)cc3)C3=C4CCC(=O)C=C4CC[C@H]3[C@@H]1CC[C@@]2(O)C(F)(F)C(F)(F)F [Example 5, 2-{(E)-3-[4-((8S,11R,13S,14S,17S)-17-hydroxy-13-methyl-3-oxo-17-pentafluoroethyl-2,3,6,7,8,11,12,13,14,15,16,17-dodecahydro-1H-cyclopenta[a]phenanthren-11-yl)phenyl]allyl}malonic acid]	0.4 nM	0.13 nM	100%	0.00 L/h/kg	88%	0.5 L/h/kg	203 µg/mL (≈ 334 µM)	improved
Cc1nc2cc(/C=C/c3ccc([C@H]4C[C@@]5(C)[C@@H](CC[C@@]5(O)C(F)(F)C(F)(F)F)[C@@H]5CCC6=CC(=O)CCC6=C54)cc3)ccc2s1 [Example 10, (8S,11R,13S,14S,17S)-17-hydroxy-13-methyl-11-{4-[(E)-2-(2-methylbenzothiazol-5-yl)vinyl]phenyl}-17-pentafluoroethyl-1,2,6,7,8,11,12,13,14,15,16,17-dodecahydrocyclopenta[a]phenanthren-3-one]	0.2 nM	0.86 nM	73%	0.36 L/h/kg	76%	1.0 L/h/kg	8 µg/mL (≈ 12.5 µM)	–
C[C@]12C[C@H](c3ccc(/C=C/C#N)cc3)C3=C4CCC(=O)C=C4CC[C@H]3[C@@H]1CC[C@@]2(O)C(F)(F)C(F)(F)F [Example 14, (E)-3-[4-((8S,11R,13S,14S,17S)-17-hydroxy-13-methyl-3-oxo-17-pentafluoroethyl-2,3,6,7,8,11,12,13,14,15,16,17-dodecahydro-1H-cyclopenta[a]phenanthren-11-yl)phenyl]acrylonitrile]	0.011 nM	0.011 nM	31%	0.9 L/h/kg	75%	1.1 L/h/kg	9 µg/mL (≈ 17.4 µM)	–
C[C@]12C[C@H](c3ccc(/C=C/c4ccncc4)cc3)C3=C4CCC(=O)C=C4CC[C@H]3[C@@H]1CC[C@@]2(O)C(F)(F)C(F)(F)F [Example 8, (8S,11R,13S,14S,17S)-17-hydroxy-13-methyl-17-pentafluoroethyl-11-[4-((E)-2-pyridin-4-ylvinyl)phenyl]-1,2,6,7,8,11,12,13,14,15,16,17-dodecahydrocyclopenta[a]phenanthren-3-one]	0.012 nM	0.077 nM	87%	0.18 L/h/kg	92%	0.3 L/h/kg	7 µg/mL (≈ 12.3 µM)	–
C[C@]12C[C@H](c3ccc(/C=C/C(=O)O)cc3)C3=C4CCC(=O)C=C4CC[C@H]3[C@@H]1CC[C@@]2(O)C(F)(F)C(F)(F)F [Example 13, (E)-3-[4-((8S,11R,13S,14S,17S)-17-hydroxy-13-methyl-3-oxo-17-pentafluoroethyl-2,3,6,7,8,11,12,13,14,15,16,17-dodecahydro-1H-cyclopenta[a]phenanthren-11-yl)phenyl]acrylic acid]	0.1 nM	0.3 nM	52%	0.63 L/h/kg	97%	0.1 L/h/kg	> 179 µg/mL	improved
